The subject of assay [1] is OGD cells (retinal ganglion cells). Kind of assay: Increase in survival of OGD cells at fixed concentrations (similar assay). It is filed as cell-based, rat. Also noted: key: +: up to 50% increase; ++: 50%-100% increase; +++: >100% increase; —: negligible or no increase.
The subject of assay [2] is Oxygen/Glucose Deprived RGCs (retinal ganglion cells). Put plainly: Protection of oxygen/glucose deprived (OGD) retinal ganglion cells, EC50. As to conditions: overall judgement.
Description: Each compound was added to control cells and to cells deprived of oxygen and glucose for the time period from 30 minutes prior to OGD, during OGD, and for 24 and 48 hours after OGD.
RGCs from postnatal day 8 (P8) Sprague-Dawley rats were purified as previously described (Barres et al., 1988; Meyer-Franke et al., 1995). Purified retinal ganglion cells were plated onto tissue culture plastic precoated with poly-D-lysine and merosin, and cultured in serum-free Neurobasal medium (Gibco) containing various supplements.
Approximately 5,000 purified RGCs were cultured in 96-well plates (Falcon), precoated with poly-D-lysine (PDL, 70 kD, 10 mg/ml; Sigma) and merosin (2 mg/ml; Gibco). The RGCs were cultured in serum-free Neurobasal medium (Brewer et al., 1993; Gibco) containing Sato-Bottenstein and B27 (Gibco) supplement, insulin (Sigma, 5 mg/ml), brain-derived neurotrophic factor (BDNF, 25 ng/ml; Preprotech), ciliary neurotrophic factor (CNTF, 20 ng/ml; Preprotech) and forskolin (10 mM, Sigma). The percentage of surviving cells was assessed at 3, 7, and 14 days by the MTT assay.
Retinal ganglion cells were grown in 96-well plates for 5 days in serum-free medium as described above. On the sixth day cells were washed three times in a salt solution, e.g. Earle's balanced salt solution (EBSS, Gibco), containing glucose for control cells, and lacking glucose for test cells (oxygen/glucose-deprived cells). Control cells were further incubated in a 5% CO2 incubator while OGD cells were deprived of oxygen in an anaerobic chamber (for 3 hours). Test compounds were added to control cells and OGD cells for the time period from 30 minutes prior to OGD, during OGD, and for 24 and 48 hours after OGD.
After 3 hours OGD, control and test cells were transferred to growth medium with glucose and cultured an additional 48 hours in a 5% CO2 incubator, followed by a determination of cell viability using MTT, propidium iodide and annexin assays.
For the cell viability assay, MTT was added to culture and incubated at 37° C. for 1 hr. […] Viable and dead cells are counted by bright field microscopy at various times, e.g. 24, 48, or 72 hours after oxygen/glucose and/or growth factor deprivation. All values are reported as the mean (average) +/− the standard error of the mean (SEM) for at least three replicate cultures.

In the case of `c1ccc2[nH]c(Cc3nc4ccccc4[nH]3)nc2c1` [SNX 857], the “Percent Increase in Survival over OGD Control Cells” value (“Percent Increase in Survival” below) is recorded as “+ (up to 50% increase)” in assay [1] (Concn 0.01 μM), “+++ (>100% increase)” in assay [1] (Concn 0.1 μM), “+++ (>100% increase)” in assay [1] (Concn 10 μM) and “++ (50%-100% increase)” in assay [1] (Concn .1 μM).
As for `O=[N+]([O-])c1ccc2[nH]c(Cc3nc4ccc([N+](=O)[O-])cc4[nH]3)nc2c1` [SNX 897, 5,5′-dinitro*], the “Percent Increase in Survival” value in assay [1] (Concn 0.01 μM), in assay [1] (Concn 0.1 μM) and in assay [1] (Concn 1 μM) was “++ (50%-100% increase)” in each case.
`Nc1ccc2[nH]c(Cc3nc4ccc(N)cc4[nH]3)nc2c1` [SNX 898, 5,5′-diamino*]: the “Percent Increase in Survival” value in assay [1] (Concn 0.01 μM) is recorded as “+ (up to 50% increase)”; in assay [1] (Concn 0.1 μM), “+ (up to 50% increase)”; in assay [1] (Concn 1 μM) it was “+ (up to 50% increase)”; in assay [1] (Concn 10 μM), “—”.
On to `Clc1ccc2[nH]c(Cc3nc4ccccc4[nH]3)nc2c1` [SNX 899, 5-chloro*], for which the “Percent Increase in Survival” value in assay [1] (Concn 0.01 μM) was “+ (up to 50% increase)”; in assay [1] (Concn 0.1 μM), “++ (50%-100% increase)”; in assay [1] (Concn 1 μM), “++ (50%-100% increase)”; in assay [1] (Concn 10 μM) it was “+ (up to 50% increase)”; in assay [1] (Concn .1 μM) it was “++ (50%-100% increase)”.
For the compound `O=[N+]([O-])c1cccc2[nH]c(Cc3nc4ccccc4[nH]3)nc12` [SNX 900, 2-(1H-benzimidazol-2-ylmethyl)4-nitro-1H-benzimidazole], the “Percent Increase in Survival” value in assay [1] (Concn 0.01 μM) is recorded as “++ (50%-100% increase)”; in assay [1] (Concn 0.1 μM), “+++ (>100% increase)”; in assay [1] (Concn 10 μM), “+ (up to 50% increase)”; in assay [1] (Concn .1 μM), “++ (50%-100% increase)”. In addition, the “Effectiveness in protecting OGD RGCs (in words, from Tables 5 and 6)” value (from here on “Effectiveness in protecting OGD RGCs”) in assay [2] is recorded as “more effective overall than the unsubstituted compound”.
For `O=[N+]([O-])c1cccc2[nH]c(Cc3nc4c([N+](=O)[O-])cccc4[nH]3)nc12` [SNX 901, 4,4′-dinitro*], the “Percent Increase in Survival” value is “++ (50%-100% increase)” in assay [1] (Concn 0.01 μM), “++ (50%-100% increase)” in assay [1] (Concn 0.1 μM), “+++ (>100% increase)” in assay [1] (Concn 10 μM) and “+++ (>100% increase)” in assay [1] (Concn .1 μM). Moreover, in assay [2], the “Effectiveness in protecting OGD RGCs” value is recorded as “more effective overall than the unsubstituted compound”.
`Nc1cccc2[nH]c(Cc3nc4c(N)cccc4[nH]3)nc12` [SNX 903, 4,4′-diamino*]: the “Percent Increase in Survival” value in assay [1] (Concn 0.01 μM) is recorded as “+++ (>100% increase)”; in assay [1] (Concn 0.1 μM), “+++ (>100% increase)”; in assay [1] (Concn 10 μM) it was “++ (50%-100% increase)”; in assay [1] (Concn .1 μM), “+++ (>100% increase)”. Also, the “Effectiveness in protecting OGD RGCs” value in assay [2] is listed as “more effective overall than the unsubstituted compound”.
For the compound `Oc1cccc2[nH]c(Cc3nc4c(O)cccc4[nH]3)nc12` [SNX 909, 4,4′-dihydroxyl*], the “Percent Increase in Survival” value in assay [1] (Concn 0.01 μM) is reported as “+ (up to 50% increase)”; in assay [1] (Concn 0.1 μM), “++ (50%-100% increase)”; in assay [1] (Concn 10 μM), “+ (up to 50% increase)”; in assay [1] (Concn .1 μM), “+++ (>100% increase)”. Moreover, in assay [2], the “Effectiveness in protecting OGD RGCs” value is “more effective overall than the unsubstituted compound”.
As to `Cn1c(Cc2nc3ccccc3n2C)nc2ccccc21` [SNX 910, 1,1′-dimethyl*], the “Percent Increase in Survival” value in assay [1] (Concn 0.01 μM) is reported as “++ (50%-100% increase)”; in assay [1] (Concn 0.1 μM), “++ (50%-100% increase)”; in assay [1] (Concn 10 μM), “+ (up to 50% increase)”; in assay [1] (Concn .1 μM) it was “+++ (>100% increase)”.
Turning to `c1cnc2[nH]c(Cc3nc4cccnc4[nH]3)nc2c1` [SNX 911, 2,2′-methylenebis(4-azabenzimidazole)], in assay [2], the “Effectiveness in protecting OGD RGCs” value is “very effective”.
For `N#Cc1ccc2[nH]c(Cc3nc4ccc(C#N)cc4[nH]3)nc2c1` [SNX 931, 5,5′-dicyano*], the “Percent Increase in Survival” value is on record as “—” in assay [1] (Concn 0.001 μM); “+ (up to 50% increase)” in assay [1] (Concn 0.01 μM); “+ (up to 50% increase)” in assay [1] (Concn 0.1 μM); “—” in assay [1] (Concn 1 μM); “++ (50%-100% increase)” in assay [1] (Concn 10 μM).
On to `Cc1nc(-c2nc(C)c(C)[nH]2)[nH]c1C` [SNX 939, 2,2′-bis(4,5-dimethylimidazole)], for which, in assay [2], the “Effectiveness in protecting OGD RGCs” value is on record as “very effective”.
Regarding `NC(c1ncc[nH]1)c1ncc[nH]1` [SNX 949, 2,2′-(aminomethylene)bisimidazole], the “Effectiveness in protecting OGD RGCs” value in assay [2] is listed as “very effective”.
In the case of `O=C(c1ncc[nH]1)c1ncc[nH]1` [SNX 951, di(imidazol-2-yl)methanone], the “Effectiveness in protecting OGD RGCs” value in assay [2] is given as “very effective”.
As to `c1ccc2[nH]c(CC3=NCCN3)nc2c1` [SNX 978, 2-(4,5-dihydroimidazol-2-yl)methyl benzimidazole], the “Effectiveness in protecting OGD RGCs” value in assay [2] is listed as “very effective”.
Same read-out and setting: to `c1ccc(CN2CCN=C2Cc2nc3ccccc3[nH]2)cc1` [SNX 979, 2-(1-benzyl-4,5-dihydroimidazol-2-yl)methyl benzimidazole] belongs “very effective”; to `CN1CC[N+](C)=C1Cc1nc2ccccc2[nH]1` [SNX 980, 2-(1,3-Dimethyl-4,5-dihydro-1H-imidazol-2-ylmethyl)-1H-benzimidazole], “very effective”; to `CN1CCN=C1Cc1nc2ccccc2[nH]1` [SNX 1019, 2-(1-methyl-4,5-dihydroimidazol-2-yl)methyl benzimidazole], “very effective”.
In the case of `CC1(C)CN=C(Cc2nc3ccccc3[nH]2)N1` [SNX 1020, 2-(5,5-Dimethyl-4,5-dihydro-1H-imidazol-2-ylmethyl)-1H-benzimidazole], the “Effectiveness in protecting OGD RGCs” value in assay [2] is listed as “very effective”.
Consider `CN1CCN=C1CCc1nc2ccccc2n1C` [SNX 1771], for which the “Effectiveness in protecting OGD RGCs” value in assay [2] is on record as “very effective”.
Same read-out and setting: to `c1ccc2[nH]c(CC3=NCCCN3)nc2c1` [SNX 1818, 2-(3,4,5,6-tetrahydropyrimidin-2-yl)methyl benzimidazole] belongs “very effective”.
On to `c1ccc2[nH]c(CC3=NCCCCN3)nc2c1` [SNX 1819, 2-(4,5,6,7-tetrahydro-1,3-diazepin-2-yl)methyl benzimidazole], for which the “Effectiveness in protecting OGD RGCs” value in assay [2] was “very effective”.

These data come from US6541486B1, “Bis-benzimidazole compounds and analogs thereof for inhibiting cell death” (Elan Pharma International Ltd., priority 1999, dated 2003).
